Laboratory results from ChEMBL document CHEMBL1152381, “Investigation of aminopyridiopyrazinones as PDE5 inhibitors: Evaluation of modifications to the central ring system” (Bioorg Med Chem Lett, 2009).
≈ marks a conversion by molar mass, not a printed value.

Key:
[1] = Half life in Sprague-Dawley rat at 2 mg/kg, iv and 2 mg/kg, po; type: ADME, organism-based; conditions: in vivo
[2] = Bioavailability in Sprague-Dawley rat at 2 mg/kg, iv and 2 mg/kg, po; type: ADME, organism-based; conditions: in vivo
[3] = Metabolic stability in human liver microsomes assessed as compound remaining after 30 mins; type: ADME, Microsome; conditions: read-out: Stability
[4] = Clearance in Sprague-Dawley rat at 2 mg/kg, iv and 2 mg/kg, po; type: ADME, organism-based; conditions: in vivo
[5] = Inhibition of PDE11
[6] = Inhibition of PDE6
[7] = Plasma protein binding in Sprague-Dawley rat at 2 mg/kg, iv and 2 mg/kg, po; type: ADME, organism-based; conditions: read-out: PPB (converted)
hERG (KCNH2) = hERG (KCNH2) (Homo sapiens, UniProt Q12809); test: Displacement of dofetilide from human ERG at 10 uM; conditions: probe dofetilide
[8] = Aqueous solubility at pH 7.4; type: physicochemical
[9] = Volume of distribution in Sprague-Dawley rat at 2 mg/kg, iv and 2 mg/kg, po; type: ADME, organism-based; conditions: in vivo
[10] = target: cGMP-specific 3',5'-cyclic phosphodiesterase (Homo sapiens, UniProt O76074); test: Inhibition of PDE5
[11] = target: Voltage-gated inwardly rectifying potassium channel KCNH2 (Homo sapiens, UniProt Q12809); test: Inhibition of human ERG by patch-clamp electrophysiology assay
Rattus norvegicus = test: Antihypertensive activity in SHR rat assessed as reduction in systemic arterial blood pressure at 1.5 mg/kg, ip administered as single bolus dose measured for > 3 hrs; type: functional, Artery; conditions: route intraperitoneal
[12] = Selectivity ratio of IC50 for PDE11 to IC50 for PDE5
[13] = Selectivity ratio of IC50 for PDE6 to IC50 for PDE5
[14] = Metabolic stability in human hepatocytes assessed as compound remaining after 30 mins; type: ADME, cell-based, Hepatocyte; conditions: read-out: Stability

hERG (KCNH2), sequence (Q12809 whole entry): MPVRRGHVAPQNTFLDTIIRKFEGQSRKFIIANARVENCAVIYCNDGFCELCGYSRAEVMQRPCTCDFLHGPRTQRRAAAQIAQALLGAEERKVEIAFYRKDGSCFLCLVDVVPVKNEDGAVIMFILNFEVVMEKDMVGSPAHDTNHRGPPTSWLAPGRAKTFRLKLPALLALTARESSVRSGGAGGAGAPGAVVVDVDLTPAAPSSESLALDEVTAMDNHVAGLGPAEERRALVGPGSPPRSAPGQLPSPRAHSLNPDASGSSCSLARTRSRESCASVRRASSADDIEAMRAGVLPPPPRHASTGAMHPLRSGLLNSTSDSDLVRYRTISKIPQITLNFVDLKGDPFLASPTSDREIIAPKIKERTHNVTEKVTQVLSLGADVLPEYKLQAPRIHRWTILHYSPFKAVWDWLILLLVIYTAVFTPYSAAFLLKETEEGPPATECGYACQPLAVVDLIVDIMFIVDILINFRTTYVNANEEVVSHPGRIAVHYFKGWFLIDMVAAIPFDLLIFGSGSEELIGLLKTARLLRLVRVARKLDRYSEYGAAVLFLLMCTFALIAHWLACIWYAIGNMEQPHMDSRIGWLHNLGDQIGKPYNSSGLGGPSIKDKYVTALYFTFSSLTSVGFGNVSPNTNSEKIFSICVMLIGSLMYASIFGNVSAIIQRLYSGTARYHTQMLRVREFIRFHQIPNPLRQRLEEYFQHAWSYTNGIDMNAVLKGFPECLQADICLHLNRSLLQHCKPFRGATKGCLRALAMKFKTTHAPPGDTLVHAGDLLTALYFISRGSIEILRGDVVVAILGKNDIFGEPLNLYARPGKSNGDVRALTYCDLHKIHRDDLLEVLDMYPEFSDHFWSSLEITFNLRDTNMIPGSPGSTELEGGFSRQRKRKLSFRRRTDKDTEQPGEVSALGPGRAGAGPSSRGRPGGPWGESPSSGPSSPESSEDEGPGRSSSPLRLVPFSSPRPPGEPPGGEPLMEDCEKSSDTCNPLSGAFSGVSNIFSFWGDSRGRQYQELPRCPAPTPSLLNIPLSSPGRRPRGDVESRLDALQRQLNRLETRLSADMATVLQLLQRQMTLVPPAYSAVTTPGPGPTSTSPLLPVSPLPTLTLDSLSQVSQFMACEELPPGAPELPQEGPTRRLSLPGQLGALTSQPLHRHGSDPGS
Voltage-gated inwardly rectifying potassium channel KCNH2, sequence (Q12809 whole entry): as above

| SMILES | half-life [1] [h] | bioavailability [2] [%] | remaining at 0.5 h [3] [%] | clearance [4] [mL/min/kg] | IC50 [5] [nM] | IC50 [6] [nM] | fraction unbound [7] | solubility [8] [µM] | Vd [9] [L/kg] | IC50 [10] [nM] | Ratio IC50 [12] | Ratio IC50 [13] | remaining at 0.5 h [14] [%] | inhibition at 10 µM (hERG (KCNH2)) [%] | inhibition (INH) [11] [%] | Activity (Rattus norvegicus) [mmHg] |
| --- | --- | --- | --- | --- | --- | --- | --- | --- | --- | --- | --- | --- | --- | --- | --- | --- |
| CCCOCCn1c(=O)c(NCCN2CCOCC2)nc2ccc(-c3ccc(OC)nc3)nc21 | 3.1 | 23 | 10 | 67.6 | 1540 | 339 | 0.104 | 4.6 (≈ 2.16 µg/mL) | 8 | – | – | – | – | 14 | – | – |
| CCCOCCn1c(=O)c(NCCN2CCOCC2)nc2ncc(-c3ccc(OC)nc3)nc21 | 0.6 | – | 12 | 151 | 3560 | 297 | 0.088 | – | 5.2 | 1.21 | 335 | < 30 | – | 11 | – | – |
| CCCOCCn1c(=O)c(NCCN2CCOCC2)nc2cnc(-c3ccc(OC)nc3)nc21 | – | – | 22 | – | 1470 | 83 | – | 4.6 (≈ 2.16 µg/mL) | – | 1.21 | – | – | – | 15 | – | – |
| CCCOCCn1c(=O)c(NCCN2CCOCC2)nc2ccc(-c3ccc(OC)nc3)cc21 | – | – | – | – | > 1990 | 177 | – | – | – | 0.9 | – | – | 20 | 43 | – | – |

Now those with a lower IC50 [5], led by results:

| half-life [1] [h] | bioavailability [2] [%] | remaining at 0.5 h [3] [%] | clearance [4] [mL/min/kg] | IC50 [5] [nM] | IC50 [6] [nM] | fraction unbound [7] | solubility [8] [µM] | Vd [9] [L/kg] | IC50 [10] [nM] | Ratio IC50 [12] | Ratio IC50 [13] | remaining at 0.5 h [14] [%] | SMILES | inhibition at 10 µM (hERG (KCNH2)) [%] | inhibition (INH) [11] [%] | Activity (Rattus norvegicus) [mmHg] |
| --- | --- | --- | --- | --- | --- | --- | --- | --- | --- | --- | --- | --- | --- | --- | --- | --- |
| 3.4 | – | 18 | 178 | 1390 | 61.8 | 0.235 | 46 (≈ 21.6 µg/mL) | 18.8 | 0.34 | – | – | – | CCCOCCn1c(=O)c(NCCN2CCOCC2)nc2ncc(-c3ccc(OC)nc3)cc21 | 34 | 34 | 25 |
| 3.2 | 21 | 38 | 33.6 | 346 | 11.3 | 0.5 | 18 (≈ 8.43 µg/mL) | 1.6 | 0.07 | – | – | – | CCCOCCn1c(=O)c(NCCN2CCOCC2)nc2cnc(-c3ccc(OC)nc3)cc21 | 23 | – | – |
